Experimental data published in patent publication US7232852B2, “Photopolymerizable compositions that include alicyclic/aromatic dioxiranes and novel dioxiranyl tetraoxaspiro [5.5] undecanes” (Curators of the University of Missouri, priority 2002, dated 2007).

Test: Photoinitiated solution homopolymerization of BMOCHM-TOSU (FTIR, gel point)
Assay type: physicochemical
Conditions: post irradiation, 20 wt % in methylene chloride
Procedure: The effect of irradiation time on the photoinitated homopolymerization of BMOCHM-TOSU monomer (20 wt % in methylene chloride) was evaluated by gel point determination and by FTIR spectroscopy. Selected IR absorption bands in the reaction mixture characteristic of hydroxyl, carbonyl and oxirane groups were monitored as a function of irradiation time. […] These observations indicate the possibility of homopolymer formation. The mixture gelled 1.5 min post irradiation.

Row | SMILES | gel point (mixture gelled)
1 | CC1CC2OC2CC1CC1COC2(OC1)OCC(CC1CC3OC3CC1C)CO2 (stereo not shown) [BMOCHM, 3,9-bis[(4-methyl-7-oxabicyclo[4.1.0]hept-3-yl)methyl]-1,5,7,11-tetraoxaspiro[5,5]undecane] | 1.5 min

Test: Solubility of TOSUs in oxirane coreactant systems
Assay type: physicochemical
Conditions: 25° C.

Row | SMILES | Solubility in oxirane base UVR 6105 | Solubility in oxirane base UVR 6105/PTHF (80/20) | Solubility in oxirane base BOCPE | Solubility in oxirane base BDDGE/PTHF (80/20)
2 | C1=CCC(CC2COC3(OC2)OCC(CC2CC=CCC2)CO3)CC1 (stereo not shown) [BCHEM, 3,9-Bis(cyclohex-3-enylmethyl)-1,5,7,11-tetraoxaspiro[5,5]undecane] | 15–25 wt % | 25 wt % | – | –
3 | CC1CC2OC2CC1CC1COC2(OC1)OCC(CC1CC3OC3CC1C)CO2 (stereo not shown) [BMOCHM, 3,9-bis[(4-methyl-7-oxabicyclo[4.1.0]hept-3-yl)methyl]-1,5,7,11-tetraoxaspiro[5,5]undecane] | 30 wt % | 25 wt % | <10 wt % | –
4 | C1CC2OC2CC1CC1COC2(OC1)OCC(CC1CCC3OC3C1)CO2 (stereo not shown) [BOCHM, 3,9-bis[(7-oxabicyclo[4.1.0]hept-3-yl)methyl]-1,5,7,11-tetraoxaspiro[5.5]undecane] | 30 wt % | 25 wt % | <10 wt % | –
5 | CCC1(CC)COC2(COC3(CCC4OC4C3)OC2)OC1 (stereo not shown) [DEODSH, 5,5-diethyl-19-oxdispiro[1,3-dioxane-2,5′-1,3-dioxane-2′,3″-bicyclo[4.1.0]heptane]] | – | 40 wt % | >10 wt % | –

Now from value to compound:

Row | Solubility in oxirane base UVR 6105 | Solubility in oxirane base UVR 6105/PTHF (80/20) | Solubility in oxirane base BOCPE | Solubility in oxirane base BDDGE/PTHF (80/20) | SMILES
6 | – | <5 wt % | 10 wt % | 5 wt % | C1CC2(COC3(OC2)OCC2(CCC4OC4C2)CO3)CC2OC12 (stereo not shown) [DOTSHH, 7,26-dioxatrispiro[bicycle[4.1.0]heptane-3,5′-1,3-dioxane-2′2″-1,3-dioxane-5″,4′″-bicyclo[4.1.0]heptane]]
7 | – | – | <5 wt % | <5 wt % | C1OC2(OCC13CC1OC1C3)OCC1(CO2)CC2OC2C1 (stereo not shown) [DOTSHX, 6,24-dioxatrispiro[bicyclo[3.1.0]hexane-3.5′-1,3-dioxane-2.2′-1,3-dioxane-5″3′″-bicyclo[3.1.0]hexane]]
